For 7 molecules, refractive index and Normal melting temperature results are on record in the NIST ThermoML archive (doi:10.1016/j.jct.2012.09.019).

± gives the expanded uncertainty stated by the source.

One may read the refractive index as a measure of how strongly the sample bends light.

Data set [1] in a line: refractive index (Na D-line) (dimensionless). Particulars: 293.15 K; 101.33 kPa; Liquid; digital refractometer.
The conditions of data set [2]: Crystal.

Take `CCCCC(=O)O` [pentanoic acid]: in data set [1], the refractive index was found to be 1.40857 ± 0.0015. Also, the Normal melting temperature in data set [2] (Heating/Cooling curves) was -34.4 ± 2 °C.

Take `CCC(=O)O` [propanoic acid]: in data set [1], the refractive index stood at 1.38682 ± 0.0014. Also, the Normal melting temperature in data set [2] (Heating/Cooling curves) was -20.8 ± 2 °C.

With `CCCC(=O)O` [butanoic acid], the refractive index in data set [1] was 1.39808 ± 0.0014. Also, the Normal melting temperature in data set [2] (Heating/Cooling curves) is -5.2 ± 2 °C.

With `CCCCCCC(=O)O` [heptanoic acid], the refractive index in data set [1] is on record as 1.4229 ± 0.0014. For the same molecule, the Normal melting temperature in data set [2] (Heating/Cooling curves) was -7.5 ± 2 °C.

Regarding `CCCCCCCCCCCCCCCC` [hexadecane], in data set [1], the refractive index is listed as 1.43461 ± 0.0014. The values for the Normal melting temperature in data set [2] (Heating/Cooling curves) and in data set [2] (heating/cooling curves) were 18.1 ± 2 °C and 18.0 ± 2 °C, respectively.

Turning to `CCCCCC(=O)O` [hexanoic acid], in data set [1], the refractive index turned out to be 1.41692 ± 0.0015. Also, the Normal melting temperature in data set [2] (Heating/Cooling curves) was -2.4 ± 2 °C.

On to `C1CCCCC1` [cyclohexane], for which the refractive index in data set [1] turned out to be 1.42631 ± 0.0014. Moreover, the Normal melting temperature in data set [2] (Heating/Cooling curves) was found to be 6.7 ± 2 °C.
